Measurements: a melting point compilation (Tetko et al.; mined from patent text by program, amines drawn as free bases though some values may be those of a salt)

Row | melting point | SMILES
1 | 117 to 119 °C | CN1CCCC(c2ccccc2)c2[nH]c3ccccc3c2CC1 (stereo unspecified)
2 | 240 to 242 °C | COc1cc2c(cc1OC(=O)C=Cc1ccccc1)C1Cc3c(Cl)cc(OC)c(OC(=O)C=Cc4ccccc4)c3CN1CC2 (stereo unspecified)
3 | 113 to 115 °C | CC(C)N1Cc2cc(CO)ccc2N(CCN2CC=C(c3c[nH]c4cc(F)ccc34)CC2)S1(=O)=O
4 | 117 to 118 °C | CCOC(=O)c1cccc(Oc2ncccc2O)c1
5 | 167 to 168 °C | CN(C)C(=O)Cc1cn(Cc2ccccc2)c2ccc(I)cc12
6 | 72 to 73 °C | OC(CCN1CCN(c2ccccn2)CC1)COc1ccc(F)cc1 (stereo unspecified)
7 | > 240 °C | Cc1c(C(=O)O)ccc2c1[nH]c1ccccc12
8 | 109 °C | C#CCCCOC(=O)NC(=O)C(c1ccccc1)c1ccccc1
9 | 168 to 170 °C | Cc1ccc(C)c(CN2CCN(C)CC(NC(=O)c3n[nH]c4ccccc34)C2)c1 (stereo unspecified)
10 | 174 °C | O=C(O)C=CCNCS(=O)(=O)c1ccc([N+](=O)[O-])cc1[N+](=O)[O-]
11 | 192 to 193 °C | COc1ccnc(-c2ccccc2S(=O)c2nc3cc(N)ccc3[nH]2)c1 (stereo unspecified)
12 | 246 to 247 °C | Cn1c(-c2ccccc2Sc2nc3ccccc3[nH]2)nc2ccccc21
13 | 174 to 177 °C | CC(C)Oc1ccc2c(c1)C(=O)c1ccc(C(=O)O)cc1CC2
14 | 200 to 202 °C | O=c1c2ccccc2n(CCc2ccccc2)c(=O)n1S(=O)(=O)c1ccc(Cl)cc1
15 | 116 to 118 °C | COc1ccc(CCCOCCn2cnc3c(N)nc4ccccc4c32)cc1
16 | 120 to 122 °C | Nc1c([N+](=O)[O-])cc(Br)c2c1CN(CCc1ccccc1)CC2
17 | 165 to 166 °C | COC(=O)c1ccc(COc2ccc3c(c2)CCN(C2CCN(C4CCC4)CC2)C3=O)cc1
18 | 195 to 196 °C | CC(C)(C)c1cc(CCc2ccccc2NC(=O)NCC(C)(C)c2ccc(N3CCCC3)cc2)cc(C(C)(C)C)c1O
19 | 118 to 120 °C | CCOC(=O)c1ccc(-c2cccc(O)c2)c(C(C)(C)C)c1
20 | 298 °C | O=C(Nc1cccc(C(=O)Nc2ccccc2)c1)Nc1nnc(-c2cc(Cl)cc(Cl)c2O)s1

Row | melting point | SMILES
21 | 90 to 91 °C | CC(C)(C)OC(=O)N[C@@H](Cc1ccc2ccccc2c1)C(=O)OCc1ccccc1
22 | 174 °C | COC(=O)C1=C(C)NC(C)=C(C(=O)OC(C)C)C1c1ccccc1[N+](=O)[O-] (stereo unspecified)
23 | 144 to 146 °C | COc1cccc2c1CN(Nc1ccncc1)C2
24 | 44 to 49 °C | CC(CCc1ccccc1)NC1CCC(c2ccc(O)cc2)CC1 (racemic)
25 | 62 to 63 °C | COC(=O)c1c(C)nc(-c2ccccc2)nc1-c1cccc(OC(F)F)c1
26 | 121 to 122 °C | O=C1CCCN1c1c([N+](=O)[O-])cc(C(F)(F)F)c(Cl)c1[N+](=O)[O-]
27 | 269 °C | C=Cn1cc(C(=O)O)c(=O)c2ccc(Cl)cc21
28 | 57 to 59 °C | CC(C)(C)N=NC(C)(C#N)COC(=O)c1ccccc1 (stereo unspecified)
29 | 248 to 250 °C | COc1cc(C(=O)NS(=O)(=O)c2ccccc2C)ccc1Cc1c[nH]c2ccc(NC(=O)CC3CCCC3)cc12
30 | 144 to 153 °C | CC(=O)NNCc1c[nH]c(=S)n1[C@H]1CCc2c(F)cc(F)cc2C1
31 | 142 to 145 °C | Nc1cc(Br)cc2cccnc12
32 | 147 to 150 °C | CCCc1nc2c(N)nc3ccccc3c2n1CCCON=C(C)C
33 | 184 to 185 °C | CC(C)(C(=O)OCC(=O)c1ccccc1)n1c(=O)[nH]c2cc3ccccc3cc2c1=O
34 | 87 to 88 °C | CCCN1C(=O)C2(CC(C)C)CC(c3ccc([N+](=O)[O-])cc3)(C2)C1=O
35 | 64 to 66 °C | CCCCCCCCCCc1ccc2c(c1)C(=O)C(=COC(=O)c1ccccc1)CC2
36 | 140 to 141 °C | Cc1cc(CCCCCOc2ccc(C3=NCCO3)cc2CO)on1
37 | 203 to 206 °C | CCNc1cccnc1N1CCN(Cc2cc(C)c(O)c(C)c2)CC1
38 | 145 to 150 °C | CCCc1ccc2c(c1)C=Cc1cc(C)ccc1C2c1cn(-c2ccnc(N(C)CC(=O)O)n2)c(=O)[nH]c1=S (stereo unspecified)
39 | 259 to 260 °C | CC(C)c1[nH]c2ccccc2c1C=C1SC(=S)N(CC(=O)O)C1=O
40 | 162 to 164 °C | O=C1CCCN(C(=O)c2ccc([N+](=O)[O-])cc2Cl)c2ncccc21

Row | melting point | SMILES
41 | 56.6 to 60.2 °C | Clc1ccc2c(c1)CCc1cccnc1C2=C1CCN(Cc2cccnc2Cl)CC1
42 | 150 to 152 °C | CCC(C#N)=C1CCN(c2ccc(N3C[C@H](CNC(=O)C(Cl)(Cl)Cl)OC3=O)cc2F)CC1
43 | 201 to 205 °C | CC1CCN(c2cc3nc(C(C)(C)C)sc3cc2NC(=S)Oc2ccccc2)CC1
44 | 95 °C | COc1cccc(C2CCCN2S(=O)(=O)c2ccc(Cl)cc2)c1 (racemic)
45 | > 300 °C | O=C(O)Cn1c(=O)c(=O)[nH]c2ccccc21
46 | 133 to 134 °C | O=C(O)CCCC(Nc1ccccc1)c1ccc(Cl)cc1 (stereo unspecified)
47 | 215 to 216 °C | COc1cccc2c1OC(C(=O)N1CCC(NC(=O)Nc3ccccc3)CC1)CC2 (stereo unspecified)
48 | 158 to 160 °C | Cc1cc(C(=O)Nc2ccccc2C)n(C)n1
49 | 125 to 126 °C | O=C(O)CCc1oc(SCc2ccccn2)nc1-c1ccc(Cl)cc1
50 | 102 to 103 °C | CCCc1c2c(c(N)c3c(=O)cc(C(=O)OCC)oc13)CC(C(=O)OCC)CC2 (stereo unspecified)
51 | 129 to 131 °C | CC(C)(C)OC(=O)Nc1ccc(C#Cc2ccc(OC(F)(F)F)cc2)cc1[N+](=O)[O-]
52 | 144 to 145 °C | CC(C(=O)O)c1ccc(-c2ccccc2)cc1 (stereo unspecified)
53 | 92 to 94 °C | CCCCCN1C(=O)C2CC(c3ccc(N)cc3)(C2)C1=O
54 | 137 to 138 °C | OCc1ccc(-c2cccc3cncn23)cc1
55 | 125 to 126 °C | Cc1nc(N2CCCC(NCC3CC3)C2=O)sc1C(=O)NCc1ccccc1 (stereo unspecified)
56 | 112 to 114 °C | O=C(Cc1ccccc1F)c1ccc(I)cc1
57 | 104 to 106 °C | Cc1cccc(NC(=O)CN2CCN(c3ccccc3C)CC2)c1
58 | 130 to 135 °C | OC(CCNC1=NCCCN1)c1ccccc1 (stereo unspecified)
59 | 50.5 to 52 °C | Fc1ccccc1COC1COC(c2ccco2)OC1 (stereo unspecified)
60 | 117 to 119 °C | COC(=O)C(=Cc1cc(OC)c(OC)cc1Br)c1ccccc1C(=O)OC

The remaining lines, values behind:

Row | SMILES | melting point
61 | O=S(=O)(Cl)c1cccc2[nH]nnc12 | 173 to 175 °C
62 | CC(C)CN(Cc1nnc(-c2ncn3c2CN(C)C(=O)c2ccccc2-3)o1)CC(C)C | 138 to 140 °C
63 | CCn1c(=O)c2[nH]c(/C=C/c3cc(OC)c4c(c3)OCO4)nc2n(CC)c1=O | > 270 °C
64 | CCc1cccc2c3c([nH]c12)C(CC)(CC(=O)OC)OCC3=NO (stereo unspecified) | 188 to 190 °C
65 | C[C@H](CC(F)(F)F)[C@@H](CO)NS(=O)(=O)c1ccc(Cl)s1 | 132 to 133 °C
66 | COc1ccc(CN(CCN(C)CCCCCCN=C(NC#N)NCCSCc2csc(NC(=N)N)n2)c2ccccn2)cc1 | 52 °C
67 | CCCCCCCCOc1cc(OC)cc(N)c1OCOC | 59 °C
68 | COc1ccc(C2=NN(C3CCN(C(=O)CN4CCN(C)CC4)CC3)C(=O)C(C)(C)C2)c2c1OC(C)(C)C2 | 121 to 123 °C
69 | COC(=O)C1=C(C)NC2=C(C(=O)CN(CC(O)COc3cccc(C)c3C)C2)C1c1c(F)ccc(Cl)c1Cl (stereo unspecified) | 190 to 193 °C
70 | CC(=O)Oc1ccc2c(c1)CCC1C2CCC2(C)C(OS(C)(=O)=O)CCC12 (stereo unspecified) | 120 to 122 °C
71 | COc1ccc(-c2[nH]nc3c2C(=O)c2c(NC(=O)NN(C)C)cccc2-3)cc1 | > 300 °C
72 | CCOC(=O)c1sc(NC(=O)c2ccc(C)cc2)nc1C(F)(F)C(F)(F)F | 202 to 203 °C
73 | CCn1cc(C(=O)Nc2ccc(C(C)C)cc2)cn1 | 141 °C
74 | C#CCn1c(-c2c(Cl)cccc2Cl)nc(-c2ccncc2)c1-c1ccc(Cl)cc1 | 169 to 172 °C
75 | CCc1nn2ccc3c(c2c1C(C)C#N)CCO3 (stereo unspecified) | 86 to 88 °C
76 | CCNC(=O)Nc1cnc2ccc(Nc3ccc(C)cc3)nc2n1 | 235 °C
77 | CC(=O)Nc1ccn(C2CCC(CO)O2)c(=O)n1 (stereo unspecified) | 143 to 145 °C
78 | CSC1CCC(=O)C(C(=O)c2ccc(S(C)(=O)=O)cc2Cl)C1=O (stereo unspecified) | 146 to 149 °C
79 | COc1nc(C)cc(-n2cncn2)n1 | 98 to 98.5 °C
80 | COC(=O)/C=C/c1nc2ccc(Cl)cc2c(=O)o1 | 117 to 118 °C
81 | N#C/C=C1\CCc2ncc3c(c21)CCO3 | 231 to 233 °C

Row | SMILES | melting point
82 | O=CC1=CCC(C=CC(=O)O)C=C1 (stereo unspecified) | 134 to 138 °C
83 | Oc1ccc(F)c(O)c1F | 100 to 101 °C
84 | O=C(Nc1ccc(-n2nc(C(F)(F)F)cc2C(F)(F)F)cc1)c1ccc(Cl)nc1Cl | 115 to 117 °C
85 | CCCCOc1ccc(C(=O)O)c(OC)c1 | 94 to 96 °C
86 | COc1cc2ncc(C#N)c(Nc3ccc4cn[nH]c4c3)c2cc1OC | 180 to 183 °C
87 | COc1nc2cc(Cl)cc(C)c2nc1OC | 94 to 96 °C
88 | Cc1cccc(C)c1NC(=O)CN1CCCC1=O | 153 to 154 °C
89 | CC(=O)c1cnc2c(n1)CCCC2 | 42 to 45 °C
90 | N#Cc1ccc(CN2CC=C(c3nc4ccccc4s3)CC2)cc1 | 165 to 166 °C
91 | CC12C=CCC1C1CCC3=CC(=O)CCC3=C1CC2 (stereo unspecified) | 87 to 92 °C
92 | CNC(=O)N(CCN)c1nc(-c2ccc(F)cc2C)c2ccc(=O)n(-c3c(F)cccc3F)c2n1 | 124 to 133 °C
93 | CCCc1c(CSc2nnc(SCCCS(=O)CC(=O)O)s2)ccc(C(C)=O)c1O (stereo unspecified) | 107 to 110 °C
94 | CCOC(=O)C1SCCc2cc(OC)c(OC)cc21 (stereo unspecified) | 96 to 98 °C
95 | CC(C)(C)OC(=O)NOC(=O)OC(C)(C)C | 52 °C
96 | COc1ccc(C=C[N+](=O)[O-])cc1OC1CCCC1 | 133 to 134 °C
97 | COc1ccc(/C=C/C(=O)/C=C/C(=O)O)c(OC)c1OC | 125 to 127 °C
98 | CNC1C(C)CN(c2c(F)c(N)c3c(=O)c(C(=O)O)cn(C4CC4)c3c2OC)CC1C (stereo unspecified) | 224 to 226 °C
99 | CC(C)[C@H](NC(=O)OCc1ccccc1)C(=O)NC(Cc1ccccc1)C(O)C(Cc1ccccc1)NC(=O)OC(C)(C)C (stereo partly specified) | 187 to 188 °C
100 | CCCCCC(=O)Nc1c(C)c(C)c2c(c1C)C(c1ccc(C)cc1)C(C)(C)O2 (stereo unspecified) | 96 to 97 °C
101 | Fc1cc(F)c(F)c(N=C2NCCN2)c1F | 147 to 148 °C
